Measurements taken from PubChem BioAssay AID2060613 (Molecular Pharmacology Branch, DTP, NCI, 2025).
Where “and” joins values, the source holds several entries; their conditions need not be identical. Identical values can stand only once.

System: 233499-124-R-J3-PDC complex spheroid viability
Test: Anticancer human tumor 233499-124-R-J3-PDC patient-derived colon adenocarcinoma cell line growth inhibition [CLK]
Details: for viability, T/C: stronger effect = lower value; active means viability on the fitted dose curve at most 10% of control; inactive means the rest
Summary of the method: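 Multi-cell-type spheroids combined patient-derived tumor cells with HUVEC endothelial cells and human mesenchymal stem cells. Paired agents were dosed in half-log steps down from about clinical Cmax, or from 10 microM where Cmax was unknown.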

[1] = curve of first compound, second compound 0.0316 µM
[2] = curve of first compound, second compound 0.1 µM
[3] = curve of first compound, second compound 0.316 µM
[4] = curve of first compound, second compound 1 µM
[5] = curve of first compound, second compound 3.16 µM
[6] = curve of first compound, second compound 10 µM
[7] = second compound 0.0316 µM, first compound 0.0316 µM
[8] = second compound 0.0316 µM, first compound 0.1 µM
[9] = second compound 0.0316 µM, first compound 0.316 µM
[10] = second compound 0.0316 µM, first compound 1 µM
[11] = second compound 0.0316 µM, first compound 3.16 µM
[12] = second compound 0.0316 µM, first compound 10 µM
[13] = second compound 0.1 µM, first compound 0.0316 µM
[14] = second compound 0.1 µM, first compound 0.1 µM
[15] = second compound 0.1 µM, first compound 0.316 µM
[16] = second compound 0.1 µM, first compound 1 µM
[17] = second compound 0.1 µM, first compound 3.16 µM
[18] = second compound 0.1 µM, first compound 10 µM
[19] = second compound 0.316 µM, first compound 0.0316 µM
[20] = second compound 0.316 µM, first compound 0.1 µM
[21] = second compound 0.316 µM, first compound 0.316 µM
[22] = second compound 0.316 µM, first compound 1 µM
[23] = second compound 0.316 µM, first compound 3.16 µM
[24] = second compound 0.316 µM, first compound 10 µM
[25] = second compound 1 µM, first compound 0.0316 µM
[26] = second compound 1 µM, first compound 0.1 µM
[27] = second compound 1 µM, first compound 0.316 µM
[28] = second compound 1 µM, first compound 1 µM
[29] = second compound 1 µM, first compound 3.16 µM
[30] = second compound 1 µM, first compound 10 µM
[31] = second compound 3.16 µM, first compound 0.0316 µM
[32] = second compound 3.16 µM, first compound 0.1 µM
[33] = second compound 3.16 µM, first compound 0.316 µM
[34] = second compound 3.16 µM, first compound 1 µM
[35] = second compound 3.16 µM, first compound 3.16 µM
[36] = second compound 3.16 µM, first compound 10 µM
[37] = second compound 10 µM, first compound 0.0316 µM
[38] = second compound 10 µM, first compound 0.1 µM
[39] = second compound 10 µM, first compound 0.316 µM
[40] = second compound 10 µM, first compound 1 µM
[41] = second compound 10 µM, first compound 3.16 µM
[42] = second compound 10 µM, first compound 10 µM
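Further: spheroids exposed to the drug combinations for seven days.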
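Wherever viability, T/C is given: percent viability relative to DMSO vehicle control wells taken as 100%.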

COc1cccc2c1C(=O)c1c(O)c3c(c(O)c1C2=O)CC(O)(C(=O)CO)CC3OC1CC(N)C(O)C(C)O1 (stereo not given) + CNC(=O)c1ccc(Nc2nc(OC3CCCC3)c3c(-c4ccc5nc(C)oc5c4)c[nH]c3n2)c(OC)c1
142 nM: IC50 [4]
155 nM: IC50 [3]
79.9 nM: IC50 [6]
286 nM: IC50 [2]
active: viability, T/C [12] 6.81% | viability, T/C [18] 2.92% | viability, T/C [23] 4.56% | viability, T/C [24] 1.31% | viability, T/C [28] 1.71% | viability, T/C [29] 1.27% | viability, T/C [30] 0.38% | viability, T/C [34] 1.95% | viability, T/C [35] 0.8% | viability, T/C [36] 0.35% | viability, T/C [40] 0.74% | viability, T/C [41] 0.74% | viability, T/C [42] 0.32%
inactive: viability, T/C [7] 92% | viability, T/C [8] 85.1% | viability, T/C [9] 38.5% | viability, T/C [10] 38.5% | viability, T/C [11] 13.5% | viability, T/C [13] 71.3% | viability, T/C [14] 71.7% | viability, T/C [15] 40.7% | viability, T/C [16] 34.2% | viability, T/C [17] 17% | viability, T/C [19] 61.7% | viability, T/C [20] 62.1% | viability, T/C [21] 33.8% | viability, T/C [22] 13.8% | viability, T/C [25] 51.1% | viability, T/C [26] 75.6% | viability, T/C [27] 19.3% | viability, T/C [31] 55% | viability, T/C [32] 53% | viability, T/C [33] 27.4% | viability, T/C [37] 56.1% | viability, T/C [38] 48.5% | viability, T/C [39] 11.7%
336 nM: IC50 [1]
115 nM: IC50 [5]

Cn1ncnc1[C@H]1c2n[nH]c(=O)c3cc(F)cc(c23)N[C@@H]1c1ccc(F)cc1 + CNC(=O)c1ccc(Nc2nc(OC3CCCC3)c3c(-c4ccc5nc(C)oc5c4)c[nH]c3n2)c(OC)c1
> 100 nM: IC50 [1] | IC50 [2] | IC50 [3] | IC50 [4] | IC50 [5] | IC50 [6]
inactive: viability, T/C (second compound 0.0316 µM, first compound 0.000316 µM) 91.3% | viability, T/C (second compound 0.0316 µM, first compound 0.001 µM) 96.5% | viability, T/C (second compound 0.0316 µM, first compound 0.00316 µM) 91% | viability, T/C (second compound 0.0316 µM, first compound 0.01 µM) 95.9% | viability, T/C [7] 110% | viability, T/C [8] 103% | viability, T/C (second compound 0.1 µM, first compound 0.000316 µM) 77.5% | viability, T/C (second compound 0.1 µM, first compound 0.001 µM) 71.4% | viability, T/C (second compound 0.1 µM, first compound 0.00316 µM) 77.2% | viability, T/C (second compound 0.1 µM, first compound 0.01 µM) 71.8% | viability, T/C [13] 78.8% | viability, T/C [14] 60.8% | viability, T/C (second compound 0.316 µM, first compound 0.000316 µM) 80.5% | viability, T/C (second compound 0.316 µM, first compound 0.001 µM) 75.5% | viability, T/C (second compound 0.316 µM, first compound 0.00316 µM) 58.6% | viability, T/C (second compound 0.316 µM, first compound 0.01 µM) 57.7% | viability, T/C [19] 66% | viability, T/C [20] 64.5% | viability, T/C (second compound 1 µM, first compound 0.000316 µM) 76.5% | viability, T/C (second compound 1 µM, first compound 0.001 µM) 87.3% | viability, T/C (second compound 1 µM, first compound 0.00316 µM) 79.8% | viability, T/C (second compound 1 µM, first compound 0.01 µM) 74.1% | viability, T/C [25] 56.8% | viability, T/C [26] 59.7% | viability, T/C (second compound 3.16 µM, first compound 0.000316 µM) 67.3% | viability, T/C (second compound 3.16 µM, first compound 0.001 µM) 69% | viability, T/C (second compound 3.16 µM, first compound 0.00316 µM) 69.3% | viability, T/C (second compound 3.16 µM, first compound 0.01 µM) 67.8% | viability, T/C [31] 72.8% | viability, T/C [32] 64.8% | viability, T/C (second compound 10 µM, first compound 0.000316 µM) 67.1% | viability, T/C (second compound 10 µM, first compound 0.001 µM) 56.3% | viability, T/C (second compound 10 µM, first compound 0.00316 µM) 74.3% | viability, T/C (second compound 10 µM, first compound 0.01 µM) 73.9% | viability, T/C [37] 50.5% | viability, T/C [38] 58.1%

O=c1[nH]cc(F)c(=O)[nH]1 + CN1CCN(c2cc(C(=O)Nc3cc4cc(-c5cnn(C)c5)ccc4cn3)ccn2)CC1
850 nM: IC50 [1]
844 nM: IC50 [3]
< 31.6 nM: IC50 [4] | IC50 [5] | IC50 [6]
active: viability, T/C [25] 1.35% | viability, T/C [26] 1.2% | viability, T/C [27] 0.92% | viability, T/C [28] 2.1% | viability, T/C [29] 0.59% | viability, T/C [30] 0.84% | viability, T/C [31] 0.5% | viability, T/C [32] 0.58% | viability, T/C [33] 1.18% | viability, T/C [34] 0.66% | viability, T/C [35] 0.53% | viability, T/C [36] 0.54% | viability, T/C [37] 0.37% | viability, T/C [38] 0.5% | viability, T/C [39] 1.31% | viability, T/C [40] 0.42% | viability, T/C [41] 0.41% | viability, T/C [42] 0.45%
952 nM: IC50 [2]
inactive: viability, T/C [7] 93% | viability, T/C [8] 104% | viability, T/C [9] 90.8% | viability, T/C [10] 43.5% | viability, T/C [11] 28.6% | viability, T/C [12] 31.4% | viability, T/C [13] 99.8% | viability, T/C [14] 100% | viability, T/C [15] 96.8% | viability, T/C [16] 48% | viability, T/C [17] 28.8% | viability, T/C [18] 30.4% | viability, T/C [19] 96.3% | viability, T/C [20] 98.5% | viability, T/C [21] 96.5% | viability, T/C [22] 42% | viability, T/C [23] 24.6% | viability, T/C [24] 19.7%

C=CC(=O)N1CCN(c2nc(=O)n(-c3c(C)ccnc3C(C)C)c3nc(-c4c(O)cccc4F)c(F)cc23)C(C)C1 (stereo not given)
> 10000 nM: IC50 (curve of compound)
inactive: viability, T/C (compound 0.0316 µM) 90.5% and 101% | viability, T/C (compound 0.1 µM) 81.9% and 87.6% | viability, T/C (compound 0.316 µM) 90.6% and 110% | viability, T/C (compound 1 µM) 87.6% and 101% | viability, T/C (compound 3.16 µM) 95% and 104% | viability, T/C (compound 10 µM) 96% and 92.6%

C=C(F)C(=O)N1CCN(c2nc(OCC3CCCN3C)nc3c2CCN(c2cccc4cccc(Cl)c24)C3)CC1CC#N (stereo not given) + CNC(=O)c1ccc(Nc2nc(OC3CCCC3)c3c(-c4ccc5nc(C)oc5c4)c[nH]c3n2)c(OC)c1
inactive: viability, T/C [7] 92.1% | viability, T/C [8] 84.5% | viability, T/C [9] 99% | viability, T/C [10] 89.6% | viability, T/C [11] 93.5% | viability, T/C [12] 44.5% | viability, T/C [13] 65.9% | viability, T/C [14] 73.2% | viability, T/C [15] 81.3% | viability, T/C [16] 70.2% | viability, T/C [17] 61.4% | viability, T/C [18] 28% | viability, T/C [19] 76.7% | viability, T/C [20] 64.9% | viability, T/C [21] 69.7% | viability, T/C [22] 72.8% | viability, T/C [23] 79.2% | viability, T/C [24] 26.7% | viability, T/C [25] 71.4% | viability, T/C [26] 82.5% | viability, T/C [27] 78.4% | viability, T/C [28] 64% | viability, T/C [29] 71.2% | viability, T/C [30] 30% | viability, T/C [31] 76.8% | viability, T/C [32] 77.3% | viability, T/C [33] 75.8% | viability, T/C [34] 73.1% | viability, T/C [35] 75.7% | viability, T/C [36] 22.9% | viability, T/C [37] 75.5% | viability, T/C [38] 66.3% | viability, T/C [39] 73.8% | viability, T/C [40] 66.5% | viability, T/C [41] 74.3% | viability, T/C [42] 22%
4720 nM: IC50 [2]
5530 nM: IC50 [5]
5200 nM: IC50 [6]
8760 nM: IC50 [1]
5660 nM: IC50 [4]
5570 nM: IC50 [3]
